From patent publication US20220089541A1, “Compounds for the Treatment of Kinase-Dependent Disorders” (Exelixis, Inc., priority 2019, published 2022)

Key:
AXL = biological target: T1, AXL (Homo sapiens, UniProt P30530); test: AXL autophosphorylation ELISA in A-172 cells; type: cell-based; settings: A-172 glioblastoma cells, Gas6-stimulated, phospho-AXL ELISA, 1 h compound incubation
T1 construct: host or cells: A-172 glioblastoma cells
T1 sequence (P30530 26-894): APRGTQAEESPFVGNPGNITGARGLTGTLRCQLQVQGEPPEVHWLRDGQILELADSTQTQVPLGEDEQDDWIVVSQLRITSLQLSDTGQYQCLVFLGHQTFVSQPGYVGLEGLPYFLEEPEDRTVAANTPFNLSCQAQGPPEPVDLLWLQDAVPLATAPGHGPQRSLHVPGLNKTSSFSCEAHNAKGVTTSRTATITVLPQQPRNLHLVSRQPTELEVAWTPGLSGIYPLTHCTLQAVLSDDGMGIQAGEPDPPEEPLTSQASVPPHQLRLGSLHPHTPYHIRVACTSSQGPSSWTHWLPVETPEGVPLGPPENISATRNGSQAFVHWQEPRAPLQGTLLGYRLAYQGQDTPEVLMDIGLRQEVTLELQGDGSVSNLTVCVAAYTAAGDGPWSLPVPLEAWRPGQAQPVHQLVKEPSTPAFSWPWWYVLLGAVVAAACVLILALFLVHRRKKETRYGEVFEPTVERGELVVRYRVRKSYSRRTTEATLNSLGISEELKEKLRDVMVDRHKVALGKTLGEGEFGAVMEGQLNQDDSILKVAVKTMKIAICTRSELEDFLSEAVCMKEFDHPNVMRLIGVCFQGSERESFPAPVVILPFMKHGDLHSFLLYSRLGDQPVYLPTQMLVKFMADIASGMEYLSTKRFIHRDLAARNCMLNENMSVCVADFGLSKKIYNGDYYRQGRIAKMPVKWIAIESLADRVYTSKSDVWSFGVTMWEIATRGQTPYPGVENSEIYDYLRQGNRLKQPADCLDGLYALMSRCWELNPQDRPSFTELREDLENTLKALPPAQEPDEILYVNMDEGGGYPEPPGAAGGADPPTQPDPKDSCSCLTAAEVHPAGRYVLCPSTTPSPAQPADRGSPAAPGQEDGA
Method: Example A: AXL Autophosphorylation ELISA in A-172 Cells
A-172 glioblastoma cells (ATCC #CRL-1620) were seeded at 2.5×10^5 cells/well onto 24-well plates (Greiner #662165), in DMEM (Thermo Fisher #11995-040) containing 10% FBS (Thermo Fisher #26140-079), 1% MEM NEAA (Thermo Fisher #11140-050), 1% GlutaMax (Thermo Fisher #35050-061), and 1% Penicillin Streptomycin (Thermo Fisher #15140-122). A-172 cells were incubated at 37° C., 5% CO2 for 24 h and then starved for 24 h in serum-free medium. Test compounds were serially diluted to produce an 8-point dose curve in fresh serum-free medium to a final concentration of 0.3% DMSO (vehicle) and added to the cells and incubated for 1 h. Cells were then stimulated with 1 μg/mL recombinant human Gas6 (R&D Systems #885-GSB-500) for 15 min, washed with cold PBS, and immediately lysed with 150 μL of cold IX lysis buffer [20 mM Tris, 137 mM sodium chloride, 2 mM EDTA, 10% glycerol, 1% NP-40 alternative, 1 mM activated sodium orthovanadate, 1 mM PefaBloc SC (Sigma-Aldrich #11429868001), protease/phosphatase inhibitor tablet (Thermo Fisher #A32959)]. Lysates were collected and 100 μL/well added into the human phospho-AXL DuoSet IC ELISA (R&D Systems #DYC2228-2). Assay was performed according to manufacturer's instructions and sample phospho-AXL concentrations were extrapolated using human phospho-AXL control (R&D Systems #841645) as a standard. Positive control wells (100% activity) contained Gas6-stimulated, DMSO-treated cell lysates. Negative control wells (0% activity) contained Gas6-stimulated, reference inhibitor-treated cell lysates. IC50 values were calculated by nonlinear regression analysis using a 4-parameter logistic curve fit in ActivityBase XE (IDBS).

KDR = biological target: T2, KDR (Homo sapiens, UniProt P35968); test: KDR autophosphorylation ELISA in HUVEC cells; type: cell-based; settings: VEGF165-stimulated, phospho-KDR ELISA, 1 h compound incubation
T2 construct: host or cells: HUVEC (human umbilical vein endothelial cells)
T2 sequence (P35968 20-1356): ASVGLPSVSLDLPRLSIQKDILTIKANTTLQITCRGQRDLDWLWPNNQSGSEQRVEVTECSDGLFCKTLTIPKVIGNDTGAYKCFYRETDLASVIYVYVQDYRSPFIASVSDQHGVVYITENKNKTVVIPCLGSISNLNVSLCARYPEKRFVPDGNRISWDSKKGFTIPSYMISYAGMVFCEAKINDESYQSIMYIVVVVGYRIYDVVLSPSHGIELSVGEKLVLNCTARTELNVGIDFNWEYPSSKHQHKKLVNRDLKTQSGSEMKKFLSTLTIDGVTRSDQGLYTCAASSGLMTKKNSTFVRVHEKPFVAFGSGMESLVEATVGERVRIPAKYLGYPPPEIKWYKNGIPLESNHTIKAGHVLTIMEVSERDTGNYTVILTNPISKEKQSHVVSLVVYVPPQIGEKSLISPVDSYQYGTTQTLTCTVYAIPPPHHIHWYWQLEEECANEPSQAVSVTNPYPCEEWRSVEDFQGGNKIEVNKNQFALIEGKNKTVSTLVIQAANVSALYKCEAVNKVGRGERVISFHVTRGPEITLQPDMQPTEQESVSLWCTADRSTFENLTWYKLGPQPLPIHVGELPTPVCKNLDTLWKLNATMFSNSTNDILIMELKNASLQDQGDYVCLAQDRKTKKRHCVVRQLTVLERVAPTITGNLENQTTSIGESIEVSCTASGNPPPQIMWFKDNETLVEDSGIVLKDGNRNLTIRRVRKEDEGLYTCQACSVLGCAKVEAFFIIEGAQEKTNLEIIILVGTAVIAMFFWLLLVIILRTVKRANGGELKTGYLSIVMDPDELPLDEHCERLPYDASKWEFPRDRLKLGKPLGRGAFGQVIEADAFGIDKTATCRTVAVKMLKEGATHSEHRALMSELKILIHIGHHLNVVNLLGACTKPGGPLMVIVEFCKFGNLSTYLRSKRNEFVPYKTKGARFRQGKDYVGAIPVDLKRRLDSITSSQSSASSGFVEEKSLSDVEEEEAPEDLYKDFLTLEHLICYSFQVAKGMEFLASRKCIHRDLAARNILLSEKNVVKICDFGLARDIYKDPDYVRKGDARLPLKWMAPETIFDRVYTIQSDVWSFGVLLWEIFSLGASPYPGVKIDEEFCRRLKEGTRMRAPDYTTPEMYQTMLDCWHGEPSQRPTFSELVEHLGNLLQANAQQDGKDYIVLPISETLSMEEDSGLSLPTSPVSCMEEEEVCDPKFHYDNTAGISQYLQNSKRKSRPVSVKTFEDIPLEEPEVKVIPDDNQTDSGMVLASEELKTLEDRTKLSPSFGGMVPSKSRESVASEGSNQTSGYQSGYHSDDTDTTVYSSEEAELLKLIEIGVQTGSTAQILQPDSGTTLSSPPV
Method: Example C: KDR Autophosphorylation ELISA in HUVEC Cells
umbilical vein endothelial cells or HUVEC (Lonza #C2519A) were seeded at 2×10^4 cells/well onto 96-well plates (Corning #3904), in EGM-2 growth medium (Lonza #CC-3162) containing 1% Penicillin Streptomycin (Thermo Fisher #15140-122). HUVEC cells were incubated at 37° C., 5% CO2 for 24 h and then starved for 24 h in serum-free EBM-2 basal medium (Lonza #CC-3156) containing 1% Penicillin Streptomycin. Test compounds were serially diluted to produce an 8-point dose curve in fresh serum-free medium to a final concentration of 0.3% DMSO (vehicle) and added to the cells and incubated for 1 h. Cells were then stimulated with 100 ng/mL recombinant human VEGF165 (R&D Systems #293-VE-500) for 5 min, washed with cold PBS, and immediately lysed with 130 μL of cold IX lysis buffer [20 mM Tris, 137 mM sodium chloride, 2 mM EDTA, 10% glycerol, 1% NP-40 alternative, 1 mM activated sodium orthovanadate, 1 mM PefaBloc SC (Sigma-Aldrich #11429868001), protease/phosphatase inhibitor tablet (Thermo Fisher #A32959)]. Lysates were collected and 100 μL/well added into the human phospho-KDR DuoSet IC ELISA (R&D Systems #DYC 1766-2). Assay was performed according to manufacturer's instructions and sample phospho-KDR concentrations were extrapolated using human phospho-KDR control (R&D Systems #841421) as a standard. Positive control wells (100% activity) contained VEGF165-stimulated, DMSO-treated cell lysates. Negative control wells (0% activity) contained non-stimulated cell lysates. IC50 values were calculated by nonlinear regression analysis using a 4-parameter logistic curve fit in ActivityBase XE (IDBS).

Row | IC50 (AXL) [nM] | IC50 (KDR) [nM] | SMILES
1 | > 300 | > 300 | COc1cc2nccc(Oc3ccc(NC(=O)C4(C(=O)N(C)c5ccc(F)cc5)CC4)cc3)c2cc1OC [Compound 9, 1-N-[4-(6,7-Dimethoxyquinolin-4-yl)oxyphenyl]-1-N′-(4-fluorophenyl)-1-N′-methylcyclopropane-1,1-dicarboxamide]
2 | > 300 | > 300 | COc1cc2nccc(Oc3ccc(NC(=O)C4(C(=O)N(C)c5ccc(F)cc5)CC4)cc3F)c2cc1OC [Compound 10, N-(4-((6,7-Dimethoxyquinolin-4-yl)oxy)-3-fluorophenyl)-N-(4-fluorophenyl)-N-methylcyclopropane-1,1-dicarboxamide]
3 | > 300 | > 300 | CNC(=O)c1cc2c(Oc3ncc(NC(=O)C4(C(=O)N(C)c5ccc(F)cc5)CC4)cc3F)ccnc2cc1OC [Compound 34, 1-N-[5-Fluoro-6-[7-methoxy-6-(methylcarbamoyl)quinolin-4-yl]oxypyridin-3-yl]-1-N′-(4-fluorophenyl)-1-N′-methylcyclopropane-1,1-dicarboxamide]
4 | > 300 | > 300 | COc1cc2nccc(Oc3ncc(NC(=O)C4(C(=O)N(C)c5ccc(F)cc5)CC4)cc3F)c2cc1C(N)=O [Compound 35, 1-N-[6-(6-Carbamoyl-7-methoxyquinolin-4-yl)oxy-5-fluoropyridin-3-yl]-1-N′-(4-fluorophenyl)-1-N′-methylcyclopropane-1,1-dicarboxamide]
5 | > 300 |  | COc1cc2nccc(Oc3ccc(N(C)C(=O)C4(C(=O)Nc5ccc(F)cc5)CC4)cc3F)c2cc1OC [Compound 51, 1-N′-[4-(6,7-Dimethoxyquinolin-4-yl)oxy-3-fluorophenyl]-1-N-(4-fluorophenyl)-1-N′-methylcyclopropane-1,1-dicarboxamide]
